Assay results reported in ChEMBL document CHEMBL3745685, “An appraisal on recent medicinal perspective of curcumin degradant: Dehydrozingerone (DZG)” (Bioorg Med Chem, 2016).
≈ marks a conversion by molar mass, not a printed value. Each block holds one compound with its values, some of them ahead of it.

Columns and labels:
Penicillium chrysogenum [1] = assay: Antifungal activity against Penicillium chrysogenum MTCC 616 assessed as growth inhibition after 5 to 7 days by broth dilution method; type: functional
[2] = Antioxidant activity assessed as ABTS free radical scavenging activity; type: physicochemical
Raji [3] = assay: Cytotoxicity against human Raji cells expressing EBV-EA assessed as inhibition of TPA-induced EBV-EA activation after 48 hrs by trypan blue staining based immunofluorescence method relative to TPA; type: functional, cell-based
Rhizoctonia solani = assay: Antifungal activity against Rhizoctonia solani Kuhn assessed as growth inhibition after 2 to 3 days by poisoned food method; type: functional, organism-based
[4] = Antioxidant activity assessed as DPPH radical scavenging activity incubated for 20 mins by spectrophotometry analysis; type: physicochemical
Aspergillus oryzae [5] = assay: Fungicidal activity against Aspergillus oryzae MTCC 262 after 5 to 7 days by agar well diffusion method; type: functional
Aspergillus flavus [6] = assay: Fungicidal activity against Aspergillus flavus MTCC 277 after 5 to 7 days by agar well diffusion method; type: functional
Aspergillus niger [7] = assay: Fungicidal activity against Aspergillus niger MTCC 218 after 5 to 7 days by agar well diffusion method; type: functional
Aspergillus ochraceus [8] = assay: Fungicidal activity against Aspergillus ochraceus MTCC 4643 after 5 to 7 days by agar well diffusion method; type: functional
Fusarium oxysporum [9] = assay: Fungicidal activity against Fusarium oxysporum MTCC 1755 after 5 to 7 days by agar well diffusion method; type: functional
Penicillium chrysogenum [10] = assay: Fungicidal activity against Penicillium chrysogenum MTCC 616 after 5 to 7 days by agar well diffusion method; type: functional
Aspergillus oryzae [11] = assay: Antifungal activity against Aspergillus oryzae MTCC 262 assessed as growth inhibition after 5 to 7 days by broth dilution method; type: functional
Aspergillus flavus [12] = assay: Antifungal activity against Aspergillus flavus MTCC 277 assessed as growth inhibition after 5 to 7 days by broth dilution method; type: functional
Aspergillus niger [13] = assay: Antifungal activity against Aspergillus niger MTCC 218 assessed as growth inhibition after 5 to 7 days by broth dilution method; type: functional
Aspergillus ochraceus [14] = assay: Antifungal activity against Aspergillus ochraceus MTCC 4643 assessed as growth inhibition after 5 to 7 days by broth dilution method; type: functional
Fusarium oxysporum [15] = assay: Antifungal activity against Fusarium oxysporum MTCC 1755 assessed as growth inhibition after 5 to 7 days by broth dilution method; type: functional
OVCAR-8 = assay: Resistance factor, ratio of IC50 for human multidrug resistant NCI/ADR-RES cells to IC50 for human OVCAR8 cells; type: functional
Brain = assay: Antioxidant activity in Wistar rat brain homogenate assessed as inhibition of Fe(II)-induced lipid peroxidation; type: functional, tissue-based
[16] = Antioxidant activity assessed as DPPH radical scavenging activity; type: physicochemical
Spilarctia obliqua = assay: Insecticidal activity against third-instar larval stage of Spilosoma obliqua Walker assessed as growth inhibition after 24 hrs by leaf disc method; type: functional, organism-based
Raji [17] = assay: Cytotoxicity against human Raji cells expressing EBV-EA assessed as inhibition of TPA-induced EBV-EA activation at 500 molar ratio after 48 hrs by trypan blue staining based immunofluorescence method relative to TPA; type: functional
Raji [18] = assay: Cytotoxicity against human Raji cells expressing EBV-EA assessed as inhibition of TPA-induced EBV-EA activation at 38 molar ratio after 48 hrs by trypan blue staining based immunofluorescence method relative to TPA; type: functional
Rattus norvegicus = assay: Antiinflammatory activity in rat assessed as inhibition of carrageenan-induced paw edema relative to control; type: functional
Mus musculus = assay: Analgesic activity in albino mouse assessed as inhibition of acetic acid-induced writhing response at 1 mmol/kg relative to control; type: functional
Raji [19] = assay: Cytotoxicity against human Raji cells expressing EBV-EA assessed as inhibition of TPA-induced EBV-EA activation at 10 molar ratio after 48 hrs by trypan blue staining based immunofluorescence method relative to TPA; type: functional
Raji [20] = assay: Cytotoxicity against human Raji cells expressing EBV-EA assessed as inhibition of TPA-induced EBV-EA activation at 100 molar ratio after 48 hrs by trypan blue staining based immunofluorescence method relative to TPA; type: functional
NCI/ADR-RES = assay: Cytotoxicity against human multidrug resistant NCI/ADR-RES cells overexpressing P-gp assessed as reduction in cell viability by MTT assay; type: functional, cell-based
[21] = Cytotoxicity against human OVCAR8 cells assessed as reduction in cell viability by MTT assay; type: functional, cell-based; conditions: OVCAR-8
[22] = Potency index, ratio of alpha-tocopherol IC0.2 to compound IC0.2 for antioxidant activity by DPPH assay
[23] = Antiproliferative activity against human MM1S cells assessed as growth inhibition at 10 uM after 48 hrs by MTT assay relative to control; type: functional; conditions: MM1.S, read-out: GI
[24] = Antiproliferative activity against human RPMI8226 cells assessed as growth inhibition at 10 uM after 48 hrs by MTT assay relative to control; type: functional; conditions: RPMI-8226, 48 h, read-out: GI
[25] = Antiproliferative activity against human U266 cells assessed as growth inhibition at 10 uM after 48 hrs by MTT assay relative to control; type: functional; conditions: U-266, 48 h, read-out: GI
Raji [26] = assay: Cytotoxicity against human Raji cells expressing EBV-EA assessed as inhibition of TPA-induced EBV-EA activation at 1000 molar ratio after 48 hrs by trypan blue staining based immunofluorescence method relative to TPA; type: functional
[27] = Potency index, ratio of ascorbic acid IC0.2 to compound IC0.2 for antioxidant activity by DPPH assay

MIC (Penicillium chrysogenum [1]): 755 µM (≈ 145 µg/mL)
IC50 [2]: 8 µM
IC50 [4]: 300 µM
MIC (Aspergillus oryzae [11]): 755 µM (≈ 145 µg/mL)
MIC (Aspergillus flavus [12]): 755 µM (≈ 145 µg/mL)
MIC (Aspergillus niger [13]): 755 µM (≈ 145 µg/mL)
MIC (Aspergillus ochraceus [14]): 755 µM (≈ 145 µg/mL)
MIC (Fusarium oxysporum [15]): 755 µM (≈ 145 µg/mL)
Compound: COc1cc(/C=C/C(C)=O)ccc1O [DEHYDROZINGERONE]
IC50 (Raji [3]): 95 molar ratio
EC50 (Rhizoctonia solani): 86.5 mg/L (≈ 0.45 mM)
MFC (Aspergillus oryzae [5]): 880 µM (≈ 169 µg/mL)
MFC (Aspergillus flavus [6]): 880 µM (≈ 169 µg/mL)
MFC (Aspergillus niger [7]): 880 µM (≈ 169 µg/mL)
MFC (Aspergillus ochraceus [8]): 880 µM (≈ 169 µg/mL)
MFC (Fusarium oxysporum [9]): 880 µM (≈ 169 µg/mL)
MFC (Penicillium chrysogenum [10]): 880 µM (≈ 169 µg/mL)

Compound: COc1ccc(/C=C/C(=O)/C=C/c2nc3cc(O)ccc3n2C)cc1O
Ratio IC50 (OVCAR-8): 1.4

IC50 [4]: 10000 µM
Compound: COc1cc(/C=C/C(C)=O)ccc1OC1OC(COC(C)=O)C(OC(C)=O)C(OC(C)=O)C1OC(C)=O (stereo not drawn)

IC50 [4]: 40000 µM
Compound: COc1cc(/C=C/C(C)=O)ccc1OC(C)=O

IC50 (Brain): 2.5 µM
IC0.2 [16]: 8.3 µM
Compound: VITAMIN E

Compound: CCCCC/C=C/C(=O)/C=C/c1ccc(O)c(OC)c1
EC50 (Spilarctia obliqua): 3550 mg/L (≈ 12.9 mM)

Compound: COc1cccc(/C=C/C(C)=O)c1OCC=C(C)C
inhibition (INH) (Raji [17]): 80%

IC0.2 [16]: 23.7 µM
Compound: O=C1O[C@H]([C@@H](O)CO)C(O)=C1O [ASCORBIC ACID]

Compound: CC(=O)CCc1ccccc1 [BENZYLACETONE]
IC50 (Raji [3]): 222 molar ratio

IC50 [4]: 7500 µM
Compound: COc1cc(/C=C/C(C)=O)ccc1OC1OC(CO)C(O)C(O)C1O (stereo not drawn)

Compound: C/C=C/c1ccc(O)c(OC)c1
inhibition (INH) (Raji [18]): 50%

Compound: COc1ccc(/C=C/C(=O)/C=C/c2nc3cc(C)ccc3n2C)cc1O
Ratio IC50 (OVCAR-8): 1.7

Compound: COc1cc(/C=C/C(=O)CC(=O)C(C)c2ccc(CC(C)C)cc2)ccc1O (stereo not drawn)
inhibition (INH) (Rattus norvegicus): 76%
inhibition in vivo at 1000 µmol/kg (Mus musculus): 59%

IC50 [4]: 20000 µM
Compound: COc1ccc(/C=C/C(C)=O)cc1OC
IC50 (Raji [3]): 107 molar ratio

Compound: COc1cc(/C=C/C(=O)/C=C/c2nc3cc(C)ccc3n2C)ccc1O
Ratio IC50 (OVCAR-8): 1.7

Compound: COc1cccc(/C=C/C(C)=O)c1O
IC50 (Raji [3]): 50 molar ratio

Compound: COc1ccc(/C=C/C(C)=O)c(OCC=C(C)C)c1
inhibition (INH) (Raji [19]): 11%

Compound: COc1ccc(/C=C/C(C)=O)cc1OCC=C(C)C
inhibition (INH) (Raji [20]): 35%

Compound: COc1cc(/C=C/C(=O)/C=C/c2nc3c(C)cccc3n2C)ccc1O
IC50 (NCI/ADR-RES): 23.2 µM
IC50 [21]: 0.7 µM
Ratio IC50 (OVCAR-8): 33.1

IC50 (Brain; Rattus norvegicus, Wistar, Brain): 6.3 µM
IC0.2 [16]: 3.2 µM
Compound: CC(=O)/C=C/c1cccc(O)c1O
Ratio [22]: 2

Compound: COc1cc(/C=C/C(=O)C(=Cc2ccc3c(c2)C(=O)N(C2CCC(=O)NC2=O)C3=O)C(=O)/C=C/c2ccc(O)c(OC)c2)ccc1O (stereo not drawn)
inhibition of growth at 10 µM [23]: ≥ 90%
inhibition of growth at 10 µM [24]: ≥ 90%
inhibition of growth at 10 µM [25]: ≥ 90%

Compound: COc1cc(C(CC(C)=O)[Se]c2ccccc2)ccc1O (stereo not drawn)
IC50 [2]: 8 µM

Compound: CC(C)Cc1ccc(C(C)C(=O)O)cc1 (stereo not drawn) [IBUPROFEN]
inhibition (INH) (Rattus norvegicus): 73%
inhibition in vivo at 1000 µmol/kg (Mus musculus): 69%

Compound: COc1cc(/C=C/C(C)=O)ccc1OCC=C(C)C
inhibition (INH) (Raji [26]): 100%

IC50 [4]: 260 µM
Compound: Cc1c(C)c2c(c(C)c1O)CCC(C)(C(=O)O)O2 (stereo not drawn) [TROLOX]

Compound: COc1cc(/C=C/C(=O)CC(=O)/C=C/c2ccc(O)c(OC)c2)ccc1O [CURCUMIN]
IC50 (Raji [3]): 97 molar ratio

Compound: COc1cc(/C=C/C(=O)/C=C/c2ccc3c(c2)C(=O)N(C2CCC(=O)NC2=O)C3=O)ccc1O (stereo not drawn)
inhibition of growth at 10 µM [23]: ≥ 90%
inhibition of growth at 10 µM [24]: ≥ 90%
inhibition of growth at 10 µM [25]: ≥ 90%

IC0.2 [16]: 4.9 µM
Compound: CC(=O)/C=C/c1cc(O)ccc1O
Ratio [27]: 5

IC50 [2]: 6.5 µM
Compound: COc1cc(C(CC(C)=O)Sc2ccccc2)ccc1O (stereo not drawn)

Compound: CC(=O)C#Cc1ccccc1 [4-PHENYL-3-BUTYN-2-ONE]
IC50 (Raji [3]): 48 molar ratio
